Key:
Type in all cases: in vivo, mouse
[1] = tested on: colon cancer-derived Colon26 cells; assay: Example 5: Balb/c mice inoculated with Colon26 cells, oxaliplatin or 5-FU combination; conditions: antibody 50 μg iv day 5; oxaliplatin 5 mg/kg or 5-FU 30 mg/kg iv 1 hour later; oxaliplatin and antibody single 4, 7, 10, 12, 14, 17 days; 5-FU single only 7 days; combinations from 10 days; Mann-Whitney U
Procedure: The back of each Balb/c mouse (5 weeks old, female) was intracutaneously inoculated with 3.5×10^5 colon cancer-derived Colon26 cells (50 μL).
To an anti-mouse CCR8 antibody single administration group, 50 μg (200 μL) of an anti-mouse CCR8 antibody (clone SA214G2, BioLegend, Inc.) was intravenously administered 5 days after tumor inoculation, and saline was intravenously administered at a volume of 10 ml/kg body weight 1 hour after the administration of the anti-mouse CCR8 antibody (N=10).
To an oxaliplatin single administration group, 50 μg (200 μL) of an isotype control antibody was intravenously administered 5 days after tumor inoculation, and oxaliplatin (trade name: ELPLAT, Yakult Honsha Company, Limited) at 5 mg/kg body weight was intravenously administered at a volume of 10 mL/kg body weight 1 hour after the administration of the isotype control antibody (N=10). […]
Tumor volumes were measured every 2 to 3 days from 4 days after tumor inoculation (a day before antibody administration). The tumor volume (mm^3) was measured in long diameter (mm)×short diameter (mm)×short diameter (mm)/2, and a significant difference test based on a Mann-Whitney U method (significance level: P<0.05) was conducted.

[2] = tested on: colon cancer-derived CT26 cells; assay: Example 12: hCCR8-KI (KI/KI) mice inoculated with CT26 cells, 5-FU combination; conditions: antibody 0.1 mg/kg iv day 5; 5-FU 30 mg/kg iv 3 hours later; single groups 8, 12, 15 days, combined from 8 days; Mann-Whitney U
Procedure: The back of each hCCR8-KI (KI/KI) mouse (14 weeks old, female) prepared in Test Example 10 was intracutaneously inoculated with 3.5×10^5 colon cancer-derived CT26 cells (50 μL).
To an anti-human CCR8 antibody single administration group, an anti-human CCR8 antibody (humanized 10A11 antibody (light chain variable region: IGKV4-1 N53Q+G29R (SEQ ID NO: 59)/heavy chain variable region: IGHV3-15 T94R (SEQ ID NO: 41)) was intravenously administered at 0.1 mg/kg body weight 5 days after tumor inoculation, and saline was intravenously administered 3 hours after the administration of the anti-human CCR8 antibody (N=8). To a 5-FU single administration group, a saline was intravenously administered 5 days after tumor inoculation, and 5-FU (trade name: 5-FU INJECTION 250 KYOWA, Kyowa Hakko Kirin Co. Ltd) was intravenously administered at 30 mg/kg body weight 3 hours after the administration of the saline (N=8). […] Tumor volumes were measured every 3 to 4 days from […] after tumor inoculation (a day before antibody administration). The tumor volume (mm^3) was measured in long diameter (mm)×short diameter (mm)×short diameter (mm)/2, and a significant difference test based on a Mann-Whitney U method (significance level: P<0.05) was conducted.

[3] = tested on: colon cancer-derived Colon26 cells; assay: Example 6: hCCR8-KI (KI/KI) mice inoculated with Colon26 cells, oxaliplatin combination; conditions: antibody 15 mg/kg iv day 5; oxaliplatin 5 mg/kg iv 3 hours later; single groups 4, 7, 10, 12, 14, 17, 18 days, combined from 7 days; Mann-Whitney U
Procedure: The back of each hCCR8-KI (KI/KI) mouse (12 weeks old, female) prepared in Test Example 10 was intracutaneously inoculated with 3.5×10^5 colon cancer-derived Colon26 cells (50 uL).
To an anti-human CCR8 antibody single administration group, an anti-human CCR8 antibody (humanized 10A11 antibody (light chain variable region: IGKV4-1 N53Q+G29R (SEQ ID NO: 59)/heavy chain variable region: IGHV3-15 T94R (SEQ ID NO: 41))) at 15 mg/kg body weight was intravenously administered 5 days after tumor inoculation, and saline was intravenously administered 3 hours after the administration of the anti-human CCR8 antibody (N=10). To an oxaliplatin single administration group, saline was intravenously administered 5 days after tumor inoculation, and oxaliplatin (trade name: ELPLAT, Yakult Honsha Company, Limited) at 5 mg/kg body weight was intravenously administered 3 hours after the administration of the saline (N=10). […] Tumor volumes were measured every 1 to 3 days from 4 days after tumor inoculation (a day before antibody administration). The tumor volume (mm^3) was measured in long diameter (mm)×short diameter (mm)×short diameter (mm)/2, and a significant difference test based on a Mann-Whitney U method (significance level: P<0.05) was conducted.

[4] = tested on: colon cancer-derived Colon26 cells; assay: Example 11: hCCR8-KI (KI/KI) mice inoculated with Colon26 cells, oxaliplatin combination (Part 2); conditions: as Example 6; 2-7B part: oxaliplatin 10, 14, 17 days, antibody 14, 17 days; 19D7 part: oxaliplatin 10, 14 days, antibody 14 days; combinations from 10 days; Student's T one-sided
Procedure: To an oxaliplatin single administration group, saline was intravenously administered 5 days after tumor inoculation, and oxaliplatin (trade name: ELPLAT, Yakult Honsha Company, Limited) at 5 mg/kg body weight was intravenously administered 3 hours after the administration of the saline (N=10). To an anti-mouse CCR8 antibody and oxaliplatin combined administration group, an anti-human CCR8 antibody at 15 mg/kg body weight was intravenously administered 5 days after tumor inoculation, and oxaliplatin at 5 mg/kg body weight was intravenously administered 3 hours after the administration of the anti-mouse CCR8 antibody (N=10). To a control group, saline was intravenously administered 5 days after tumor inoculation, and saline was intravenously administered 3 hours after the administration of the saline (N=10). […] Tumor volumes were measured every 1 to 3 days from 4 days after tumor inoculation (a day before antibody administration). The tumor volume (mm^3) was measured in long diameter (mm)×short diameter (mm)×short diameter (mm)/2, and a significant difference test based on a Mann-Whitney U method (significance level: P<0.05) was conducted. […]

Structure (SMILES)	tumor volume as compared to the control group [1]	tumor volume as compared to the control group [2]	tumor volume as compared to the control group [3]	tumor volume as compared to the control group [4]
O=c1[nH]cc(F)c(=O)[nH]1 [5-FU, fluorouracil, reference compound]	significant decrease	no significant decrease		
O=C1[O][Pt]2([NH][C@@H]3CCCC[C@H]3[NH]2)[O]C1=O [oxaliplatin, reference compound]	no significant decrease		no significant decrease	no significant decrease

From patent publication US20230256092A1, “COMBINED USE OF ANTI-CCR8 ANTIBODY AND CHEMOTHERAPEUTIC AGENT” (Shionogi & Co., Ltd., priority 2020, published 2023)
